target: T1, AR receptor (Homo sapiens, UniProt P10275); assay: transactivation test in PALM (PC3 Androgen receptor Luciferase MMTV) cell line, cross curves against methyltrienolone; assay type: cell-based; details: cross curves vs reference agonist methyltrienolone, read-out: Kdapp (apparent dissociation constant)
T1 construct: expressed in transfected cells; host or cells: PALM (PC3 stably transfected with PMMTV-neo-Luc and pSG5puro-AR)
T1 sequence (P10275 1-920): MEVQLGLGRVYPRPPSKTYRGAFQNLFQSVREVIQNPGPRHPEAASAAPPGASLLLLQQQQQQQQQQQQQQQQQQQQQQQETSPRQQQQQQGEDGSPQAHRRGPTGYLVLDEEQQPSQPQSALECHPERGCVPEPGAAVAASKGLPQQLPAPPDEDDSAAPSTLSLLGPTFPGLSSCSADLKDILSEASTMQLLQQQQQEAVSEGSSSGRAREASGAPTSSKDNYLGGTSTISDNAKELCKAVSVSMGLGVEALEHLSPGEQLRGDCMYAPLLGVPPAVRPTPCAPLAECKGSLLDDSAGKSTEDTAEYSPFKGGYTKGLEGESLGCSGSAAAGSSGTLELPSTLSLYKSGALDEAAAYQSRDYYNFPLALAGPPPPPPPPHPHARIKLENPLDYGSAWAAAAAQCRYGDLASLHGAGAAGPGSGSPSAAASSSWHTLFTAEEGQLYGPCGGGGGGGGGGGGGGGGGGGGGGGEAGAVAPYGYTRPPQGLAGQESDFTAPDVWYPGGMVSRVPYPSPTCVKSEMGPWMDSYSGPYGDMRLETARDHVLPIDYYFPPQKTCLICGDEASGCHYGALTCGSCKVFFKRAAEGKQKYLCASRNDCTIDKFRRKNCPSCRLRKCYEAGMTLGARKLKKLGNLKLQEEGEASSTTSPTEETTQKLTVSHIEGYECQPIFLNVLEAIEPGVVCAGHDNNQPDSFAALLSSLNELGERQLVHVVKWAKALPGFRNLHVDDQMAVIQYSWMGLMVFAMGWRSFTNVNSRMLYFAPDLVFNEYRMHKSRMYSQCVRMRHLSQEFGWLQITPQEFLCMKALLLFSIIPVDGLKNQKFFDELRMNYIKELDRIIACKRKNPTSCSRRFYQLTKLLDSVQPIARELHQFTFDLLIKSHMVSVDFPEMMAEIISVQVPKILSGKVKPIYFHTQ
Procedure: The compounds according to the invention show inhibitory properties on receptors of AR type. This AR receptor-inhibiting activity is measured in a transactivation test through the KdR (resting), KdA (active) and Kdapp (apparent) dissociation constants according to the method set out in J. Molecular Biology (1965), 12(1), 88-118, Monod J. et al.
The expression “AR-type receptor inhibitor” means, according to the invention, any compound which has a Kdapp dissociation constant of less than or equal to 1 μM, and a KdR/Kda ratio ≦10, in a transactivation test.
The transactivation test is carried out in the PALM (PC3 Androgen receptor Luciferase MMTV) cell line which is a stable transfectant containing the PMMTV-neo-Luc (reporter gene) and pSG5puro-AR plasmids.
In this study, the affinity of each product for the 2 receptor states (KdR and KdA) is determined, as is an apparent Kd (Kdpp). This constant is a result of the 2 Kd, but also depends on the initial equilibrium of the receptor between the active state and the resting state (L0) and on its expression level. It is determined by means of the following formula: 1/KdApp=(L0/(1+L0))x(1/KdR)+(1/(1+L0))x(1/KdA)
To determine these constants, “cross curves” of the test product against a reference agonist, methyltrienolone, are produced in 96-well plates. The test product is used at 10 concentrations and the reference agonist at 7 concentrations.

SMILES	Kd [nM]
N#Cc1cncc(NCc2ccccc2O)c1 [Compound 4, 5-(2-Hydroxybenzylamino)nicotinonitrile]	200
CCC(Nc1cncc(Br)c1)c1ccccc1O (stereo not drawn) [Compound 9, 2-[1-(5-Bromopyridin-3-ylamino)propyl]phenol]	60
Cc1cncc(NCc2ccccc2O)c1 [Compound 14, 2-[(5-Methylpyridin-3-ylamino)methyl]phenol]	15

Stronger by Kd, values ahead:

Kd [nM]	SMILES
6	Oc1ccccc1CNc1cncc(Br)c1 [Compound 1, 2-[(5-Bromopyridin-3-ylamino)methyl]phenol]
5	Oc1cccc(F)c1CNc1cncc(Br)c1 [Compound 2, 2-[(5-Bromopyridin-3-ylamino)methyl]-3-fluorophenol]

test system: not given; assay: not given; details: not given

melting point [°C]	SMILES
184	Oc1ccccc1CNc1cncc(Br)c1 [Compound 1, 2-[(5-Bromopyridin-3-ylamino)methyl]phenol]

— patent US9120753B2, “Phenol derivatives and pharmaceutical or cosmetic use thereof” (GALDERMA RESEARCH & DEVELOPMENT, priority 2009, dated 2015)
